Reference: PubChem BioAssay (NCI)
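Tested at 5 concentrations; 48 h exposure; 96-well plates; endpoints linearly interpolated, else capped at highest concentration. At the GI50, growth is halved. TGI: total growth inhibition.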

Tests used:
Experiment in all cases: inhibition of tumour cell growth, NCI panel, 48 h
[1] = system: HCT-116 colon
[2] = system: MDA-MB-435
[3] = system: NCI-H226 lung
[4] = system: NCI-H460 lung
[5] = system: NCI-H522 lung
[6] = system: OVCAR-3 ovarian
[7] = system: SK-MEL-28 melanoma
[8] = system: SK-OV-3 ovarian
[9] = system: TK-10 renal
[10] = system: UACC-257 melanoma

CCN(c1cc(-c2ccc(CN3CCOCC3)cc2)cc(C(=O)NCc2c(C)cc(C)[nH]c2=O)c1C)C1CCOCC1
GI50 [1]: 18.5 µM | TGI [1]: 40.3 µM | GI50 [2]: 17.4 µM | TGI [2]: 34.6 µM | GI50 [3]: 16.5 µM | TGI [3]: 40.8 µM | GI50 [4]: 25.5 µM | TGI [4]: > 66.8 µM | GI50 [5]: 23.6 µM | TGI [5]: > 58.5 µM | GI50 [6]: 25 µM | TGI [6]: > 54.6 µM | GI50 [7]: 20.5 µM | TGI [7]: 47.7 µM | GI50 [8]: 52.9 µM | TGI [8]: > 100 µM | GI50 [9]: 25.2 µM | TGI [9]: > 73.6 µM | GI50 [10]: 16.2 µM | TGI [10]: 33.5 µM

COc1cc2c(cc1O)CC1c3c(cc(O)c(OC)c3-2)CCN1C (centres undefined)
TGI [1]: > 100 µM | TGI [2]: > 100 µM | TGI [3]: > 100 µM | TGI [4]: > 100 µM | TGI [5]: > 100 µM | TGI [6]: > 100 µM | TGI [7]: > 100 µM | TGI [8]: > 100 µM | TGI [9]: > 100 µM | TGI [10]: > 100 µM

O=c1/c(=C\c2ccc(F)cc2)sc2n1C(c1ccc(F)cc1)C1=C(N=2)c2ccc3ccccc3c2OCC1 (centres undefined)
GI50 [1]: > 100 µM | TGI [1]: > 100 µM | GI50 [2]: > 100 µM | TGI [2]: > 100 µM | GI50 [3]: > 100 µM | TGI [3]: > 100 µM | GI50 [4]: 14.2 µM | TGI [4]: > 100 µM | GI50 [5]: > 100 µM | TGI [5]: > 100 µM | GI50 [6]: > 100 µM | TGI [6]: > 100 µM | GI50 [7]: > 100 µM | TGI [7]: > 100 µM | GI50 [8]: > 100 µM | TGI [8]: > 100 µM | GI50 [9]: > 100 µM | TGI [9]: > 100 µM | GI50 [10]: > 100 µM | TGI [10]: > 100 µM

O=C(Nc1ccc(-c2nc(-c3cccc(OCCN4CCOCC4)c3)c(-c3ccnc(Br)c3)[nH]2)cc1)c1ccccc1
GI50 [1]: 2.58 µM | TGI [1]: > 100 µM | GI50 [2]: 1.69 µM | TGI [2]: 3.76 µM | GI50 [3]: 2.94 µM | TGI [3]: > 100 µM | GI50 [4]: 2.81 µM | TGI [4]: 9.3 µM | GI50 [5]: 3.69 µM | TGI [5]: > 100 µM | GI50 [6]: 4.27 µM | TGI [6]: > 100 µM | GI50 [7]: 1.5 µM | TGI [7]: 3.94 µM | GI50 [8]: 2.15 µM | TGI [8]: 4.79 µM | GI50 [9]: 4.48 µM | TGI [9]: > 100 µM | GI50 [10]: 2.23 µM | TGI [10]: 6.36 µM

Cc1c2c(c(C)c3c4c(oc13)CCCC4)C=NCC2
TGI [1]: 35.9 µM | TGI [2]: 29.3 µM | TGI [3]: 31.5 µM | TGI [4]: 31.2 µM | TGI [5]: 31.3 µM | TGI [6]: 31.5 µM | TGI [7]: 35.7 µM | TGI [8]: 38.1 µM | TGI [9]: 25.4 µM | TGI [10]: 29.5 µM

S=c1nc(N/N=C/c2ccco2)c2cn[nH]c2[nH]1
GI50 [1]: 25 µM | TGI [1]: > 100 µM | GI50 [2]: 45.7 µM | TGI [2]: > 100 µM | GI50 [3]: > 100 µM | TGI [3]: > 100 µM | GI50 [4]: 17.9 µM | TGI [4]: > 100 µM | GI50 [5]: 40.5 µM | TGI [5]: > 100 µM | GI50 [6]: 32.3 µM | TGI [6]: > 100 µM | GI50 [7]: > 100 µM | TGI [7]: > 100 µM | GI50 [8]: 92.7 µM | TGI [8]: > 100 µM | GI50 [9]: > 100 µM | TGI [9]: > 100 µM | GI50 [10]: > 100 µM | TGI [10]: > 100 µM

O=C1CCC(N2C(=O)c3ccccc3C2=O)C(=O)N1 (centres undefined)
TGI [1]: > 100 µM | TGI [2]: > 100 µM | GI50 [3]: > 100 µM | TGI [3]: > 100 µM | TGI [4]: > 100 µM | TGI [5]: > 100 µM | GI50 [6]: > 100 µM | TGI [6]: > 100 µM | GI50 [7]: > 100 µM | TGI [7]: > 100 µM | TGI [8]: > 100 µM | GI50 [9]: > 100 µM | TGI [9]: > 100 µM | TGI [10]: > 100 µM

c1cncc(CNCc2cccnc2)c1
TGI [1]: > 100 µM | TGI [2]: > 100 µM | TGI [3]: > 100 µM | TGI [4]: > 100 µM | TGI [5]: > 100 µM | TGI [6]: > 100 µM | TGI [7]: > 100 µM | TGI [8]: > 100 µM | TGI [9]: > 100 µM | TGI [10]: > 100 µM

CC1=Cc2ccc(C)cc2C(=O)C1=O
TGI [1]: 10.8 µM | TGI [2]: 4.27 µM | TGI [3]: > 100 µM | TGI [4]: 41 µM | TGI [5]: 4.15 µM | TGI [6]: 49.4 µM | TGI [7]: 52.9 µM | TGI [8]: 27 µM | TGI [9]: 3.68 µM | TGI [10]: 15.8 µM

O=C([O][Sn]([O]C(=O)c1ccccn1)([c]1ccccc1)[c]1ccccc1)c1ccccn1
GI50 [1]: 1.71 µM | TGI [1]: 3.11 µM | GI50 [2]: 2.29 µM | TGI [2]: 6.04 µM | GI50 [3]: 14.7 µM | TGI [3]: 29.6 µM | GI50 [4]: 12.2 µM | TGI [4]: 26.2 µM | GI50 [5]: 0.14 µM | TGI [5]: 0.291 µM | GI50 [6]: 1.62 µM | TGI [6]: 2.98 µM | GI50 [7]: 3.4 µM | TGI [7]: 13.3 µM | GI50 [8]: 55.5 µM | TGI [8]: > 100 µM | GI50 [9]: 2.63 µM | TGI [9]: 5.2 µM | GI50 [10]: 1.62 µM | TGI [10]: 3.61 µM

CN(C)CCSS(=O)(=O)O
TGI [1]: > 100 µM | TGI [2]: > 100 µM | TGI [3]: > 100 µM | TGI [4]: 34.7 µM | TGI [5]: > 100 µM | TGI [6]: > 100 µM | TGI [7]: > 100 µM | TGI [8]: > 100 µM | TGI [9]: > 100 µM

O=C(Nn1c(-c2ccccc2)nc2ccccc2c1=O)c1ccccc1O
TGI [1]: > 100 µM | TGI [2]: > 100 µM | TGI [3]: > 100 µM | TGI [4]: > 100 µM | TGI [5]: > 100 µM | TGI [6]: > 100 µM | TGI [7]: > 100 µM | TGI [8]: > 100 µM | TGI [9]: > 100 µM | TGI [10]: > 100 µM

COC(=O)C1C(O)C(C)C(O)C(C)C=C(C)C2=C3C(=C(C)C(=O)c4c(O)c(c(C)c(OC(C)=O)c43)NC(=O)C(C)=C/C=C\C(C)C(O)C(C)C1O)OCO2 (centres undefined)
TGI [1]: > 100 µM | TGI [2]: 30.4 µM | TGI [3]: > 100 µM | TGI [4]: > 100 µM | TGI [5]: 39.4 µM | TGI [6]: 53 µM | TGI [7]: 47.3 µM | TGI [8]: > 100 µM | TGI [9]: > 100 µM | TGI [10]: 37.4 µM

Cc1nn2c(/C=C3/C(=O)Nc4cc(Cl)ccc43)c(-c3ccccc3)nc2s1
GI50 [1]: 1.85 µM | TGI [1]: 3.46 µM | GI50 [2]: 3.72 µM | TGI [2]: > 100 µM | GI50 [3]: 4.56 µM | TGI [3]: 63.7 µM | GI50 [4]: 3.72 µM | TGI [4]: > 100 µM | GI50 [5]: 1.8 µM | TGI [5]: 4.11 µM | GI50 [6]: 1.89 µM | TGI [6]: 3.68 µM | GI50 [8]: 14.3 µM | TGI [8]: > 100 µM | GI50 [9]: 2.34 µM | TGI [9]: 4.14 µM | GI50 [10]: 2.65 µM | TGI [10]: 8.32 µM

COC(=O)COc1ccc(/C=C2/N=C(c3ccccc3)N(c3c(C)n(C)n(-c4ccccc4)c3=O)C2=O)cc1
GI50 [1]: 32.4 µM | TGI [1]: > 100 µM | GI50 [2]: 19.7 µM | TGI [2]: 47 µM | GI50 [3]: 25.3 µM | TGI [3]: 63.5 µM | GI50 [4]: 26 µM | TGI [4]: > 100 µM | GI50 [5]: 17.8 µM | TGI [5]: 41 µM | GI50 [6]: 16.6 µM | TGI [6]: 30.7 µM | GI50 [7]: 16.8 µM | TGI [7]: 30.9 µM | GI50 [8]: 17.3 µM | TGI [8]: 37.9 µM | GI50 [9]: 18.5 µM | TGI [9]: 34.1 µM
